# Measured values from patent publication US8563578B2, “Antitumor properties of NO modified protease inhibitors” (Onconox APS, priority 2008, dated 2013).
# Experiments:
# B16 cells [1] = assay: LDH release assay, B16; format: cell-based; details: for LDH release (cytotoxicity, necrosis): 24 h, different doses
# Method: (§1) Reduction of 3-4,5-dimethylthiazol-2-yl)-2,5-diphenyltetrazolium bromide (MTT) to formazan depends on mitochondrial activity of cultured cells, absorption of crystal violet dye correlates with the number of adherent, live cells, while the release of cytosolic lactate dehydrogenase (LDH) indicates the disruption of membrane integrity caracteristic for necrotic cells. […] Mitohondrial-dependent production of formazan and intensity of absorbed crystal violet by adherent cells were assessed by an automated microplate reader at 570 nm, while the pyruvate-mediated conversion of 2,4-dinitrophenylhydrazine into visible hydrazone precipitate in LDH assay was measured at 492 nm. The % of cytotoxicity as indicated by LDH release was calculated as: (E−C)/(T−C)×100, where E is the experimental absorbance of cell cultures, C is the control absorbance of cell-free culture medium, and T is the absorbance corresponding to the maximal (100%) LDH release of Triton-lysed cells.
# (§2) FIG. 4. […] Results are calculated as indicated in materials and methods and presented as mean±SD from representative of three independent experiment (*p <0.05). […] After 24 h of cultivation without or with drugs, cells were stained with AO orange (B) or PI (C) and analyzed by flow cytometry. The data are presented as mean±SD from three independent experiments. *p<0.05, refers to untreated cultures. […] Cells were incubated with 18.8 μM of Sag or Saq-NO2 for 24 h. After that, the drugs were either removed or not from the cells and incubated for additional 24 h. Cell viability was determined by CV test after 24 and 48 h of incubation (right panels). The data are presented as mean±SD from three independent experiments. *p<0.05, refers to untreated cultures.
# tyrosinase of B16 cells = assay: Tyrosinase activity assay, B16; format: cell-based, mouse; details: 18.8 μM, 24 h
# Method: Tyrosinase activity was determined by measuring the rate of oxidation of L-DOPA^34. Briefly, sub-confluent cultures in 6-well plate were lysed in 100 μl phosphate buffer pH 6.8-1% Triton X-100 and than centrifuged at 10000 rpm for 5 min. 40 μl of each extract was mixed with 100 μl of L-DOPA substrate solution (2 mg/ml). Enzymatic reaction was carried out at 37° C. and the absorbance at 570 nm was read every 10 min for at least 1 h. The final activity was corrected by the total amount of protein estimated by Bradford assay. For melanin determination cells were incubated in 6 well plate for 24 h, trypsinized, counted and than lysed in 100 μl of 1M NaOH. 400 μl of distilled water was added and samples were incubated at 60° C. for 1 h. Thereafter, absorbance of dissolved dye was measured at 492 nm.
# FIG. 5. […] Cell morphology was assessed by light microscopy (A). Markers of cell differentiation of C6 and B16 cells, galactocerebroside, GFAP and MBP were determined by cELISA and melanin and tyrosinase activity were determined as described in material and methods (B). Cyclin D3 and p53 expression were evaluated by cELISA (C, upper panels), immunocytochemistry (C, middle panel) and Western blot (C, lower panel). The results were presented as mean±SD from three independent experiments. *p<0.05, refers to untreated cultures.
# [2] = system: transformed human (HeLa, BT20, HCC 1419, PC-3) and rodent (C6, B16) cell lines; assay: Cell viability by crystal violet assay, tumor cell line panel; format: cell-based, rat, mouse; details: 24 h
# Text: Rat glioma C6 and human glioblastoma U251 cell lines were a kind gift from Dr. Pedro Tranque (Universidad de Castilla-La Mancha, Albacete, Spain), murine melanoma B 16, and human adenocarcinoma HeLa, were a kind gift from Dr. Sinisa Radulovic (Institute for Oncology and Radiology of Serbia, Belgrade, Serbia) while mouse fibrosarcoma L929 was obtained from the European Collection of Animal Cell Cultures (Salisbury, UK). Human breast HCC1419 and prostate PC-3 cells were purchased from LGC Promochem srl (Venezia, Italy). Primary mouse fibroblasts and rat astrocytes were prepared as described (Mijatovic et al. 2004). Cells were grown in HEPES-buffered RPMI 1640 medium supplemented with 5% FCS, 2 mM glutamine, 0.01% sodium pyruvate, 5×10^−5 M 2-mercaptoethanol, and antibiotics (culture medium) at 37° C. in a humidified atmosphere with 5% CO2. After the conventional trypsinization procedure cells were seeded at 1×10^4/well in 96-well, 2×10^5/well in 6-well plate or 3×10^4/well in 4-well chamber slide, cultivated overnight, and then exposed to drug. […]
# as §1
# (§3) FIG. 2. […] Cell viability was then evaluated by CV test. […]
# mouse fibroblasts = assay: Cell viability by CV test, primary fibroblasts; format: cell-based; details: 24 h, Sag at its IC50 dose
# Text: Rat glioma C6 and human glioblastoma U251 cell lines were a kind gift from Dr. Pedro Tranque (Universidad de Castilla-La Mancha, Albacete, Spain), murine melanoma B 16, and human adenocarcinoma HeLa, were a kind gift from Dr. Sinisa Radulovic (Institute for Oncology and Radiology of Serbia, Belgrade, Serbia) while mouse fibrosarcoma L929 was obtained from the European Collection of Animal Cell Cultures (Salisbury, UK). Human breast HCC1419 and prostate PC-3 cells were purchased from LGC Promochem srl (Venezia, Italy). Primary mouse fibroblasts and rat astrocytes were prepared as described (Mijatovic et al. 2004). […]
# as §1, with “The % of cytotoxicity as indicated by LDH release was calculated as: (E−C)/(T−C)×100, where E is the experimental absorbance of cell cultures, C is the control absorbance of cell-free culture medium, and T is the absorbance corresponding to the maximal (100%) LDH release of Triton-lysed cells.” left out
# as §3
# B16 cells [3] = assay: Cell cycle / apoptosis by propidium iodide flow cytometry, B16; format: cell-based, mouse; details: 18.8 μM, 24 h
# Method: Apoptotic cell death was assessed by flow cytometry analysis of DNA fragmentation in cells stained with DNA-binding dye propidium iodide (PI). Following a 24 h incubation in 6-well plate, cells (2×10^5/well) were detached with trypsin, washed and fixed in 70% ethanol at 4° C. for 30 min. After washing in PBS, cells were resuspended in PBS containing 1 mg/ml RNase and propidium iodide (40 μg/ml) and kept at 37° C. in the dark for 30 min. Red fluorescence was analyzed with FACSCalibur flow cytometer (BD, Heidelberg, Germany) and distribution of cells among cell cycle phases was determined with Cell Quest Pro software (BD). Hypodiploid cells in sub-G0/G1 compartment were considered apoptotic.
# as §2
SMILES,"LDH release (cytotoxicity, necrosis) (B16 cells [1])",tyrosinase activity (tyrosinase of B16 cells),anti-tumor potential (viability of tumor cell lines) [2],effect on viability of non-transformed primary fibroblasts (mouse fibroblasts),cell cycle distribution (B16 cells [3]),"LDH release (cytotoxicity, necrosis) (B16 cells [1]; listed as Saq-NO)","cytotoxicity at 18.8 µM (B16 cells [1]; Mus musculus, 18.8 μM, 18 h of exposure, control 2.3%) [%]",IC50 value relative to the parent drug ([2]; tumor cell lines),apoptosis (B16 cells [3])
"CC(C)(C)NC(=O)[C@@H]1C[C@@H]2CCCC[C@@H]2CN1C[C@@H](O)[C@H](Cc1ccccc1)NC(=O)[C@H](CC(N)=O)NC(=O)c1ccc2ccccc2n1 [Saq, Saquinavir, reference compound]",induced LDH release in both cell lines in a dose-dependent way,increased,strong anti-tumor potential,highly toxic,did not show considerably different distribution from control,–,–,–,–
"CC(C)(C)NC(=O)[C@@H]1C[C@@H]2CCCC[C@@H]2CN1C[C@@H](O[N+](=O)[O-])[C@H](Cc1ccccc1)NC(=O)[C@H](CC(N)=O)NC(=O)c1ccc2ccccc2n1 [Saq-NO2, nitric ester of Saquinavir]",induced significant cytoxicity even at lowest dose tested,slight but significant decrease,strong anti-tumor potential,did not affect the viability,accumulation of cells in G2/M phase,dose-dependent LDH release was detected upon all tested doses,6.2,two to four fold lower,statistically significant apoptosis
